Laboratory results as given in US20200031825A1, “HETEROAROMATIC-FUSED IMIDAZOLYL AMIDES, COMPOSITIONS AND USES THEREOF AS STING AGONISTS” (Trillium Therapeutics Inc., priority 2018, published 2020).
pEC50: −log10 of the molar value. Where a name gives a salt, the structure may show the parent alone. Read-outs that look alike come from different tables or passages of the source.

Assays:
Assay type in all cases: cell-based
[1] = biological target: T1, mSTING-wt (Mus musculus, UniProt Q3TBT3); assay: Cellular Functional Assay I: ISRE-SEAP reporter in HEK-293T-Dual Null cells transfected with mouse STING
T1 sequence (Q3TBT3 1-378): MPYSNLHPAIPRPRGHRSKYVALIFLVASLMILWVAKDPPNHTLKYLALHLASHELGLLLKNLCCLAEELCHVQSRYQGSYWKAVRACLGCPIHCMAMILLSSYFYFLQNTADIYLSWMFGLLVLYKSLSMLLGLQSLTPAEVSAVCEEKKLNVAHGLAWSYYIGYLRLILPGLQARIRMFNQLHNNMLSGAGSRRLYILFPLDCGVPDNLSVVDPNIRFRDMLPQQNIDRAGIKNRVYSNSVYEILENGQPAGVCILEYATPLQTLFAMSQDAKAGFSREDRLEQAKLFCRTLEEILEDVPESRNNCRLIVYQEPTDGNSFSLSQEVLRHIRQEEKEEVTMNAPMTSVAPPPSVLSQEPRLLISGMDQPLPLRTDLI

[2] = biological target: T2, hSTING-AQ (Homo sapiens, UniProt Q86WV6, G230A/R293Q); assay: Cellular Functional Assay I: ISRE-SEAP reporter, hSTING-AQ allele
T2 construct: expressed in transfected cells
T2 sequence (Q86WV6 whole entry G230A/H232R/R293Q): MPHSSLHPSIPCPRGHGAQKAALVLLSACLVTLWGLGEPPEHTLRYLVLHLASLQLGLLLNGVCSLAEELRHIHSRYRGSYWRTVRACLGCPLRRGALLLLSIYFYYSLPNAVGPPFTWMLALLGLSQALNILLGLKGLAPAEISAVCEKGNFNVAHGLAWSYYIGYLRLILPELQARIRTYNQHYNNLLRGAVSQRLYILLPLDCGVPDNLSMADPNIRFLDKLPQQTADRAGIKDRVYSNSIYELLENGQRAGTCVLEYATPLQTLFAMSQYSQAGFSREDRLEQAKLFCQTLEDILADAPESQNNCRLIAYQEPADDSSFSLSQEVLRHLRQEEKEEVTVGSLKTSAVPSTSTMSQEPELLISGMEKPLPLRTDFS

[3] = biological target: hSTING-H232 (Homo sapiens, UniProt Q86WV6); assay: Cellular Functional Assay I: ISRE-SEAP reporter in HEK-293T-Dual Null cells transfected with hSTING-H232; conditions: HEK-293T-Dual Null, hSTING-H232
hSTING-H232, sequence (Q86WV6 whole entry): as the sequence (Q86WV6 whole entry G230A/H232R/R293Q) above, with A230G, R232H, Q293R counted along it

[4] = biological target: hSTING-HAQ (Homo sapiens, UniProt Q86WV6, G230A/H232R/R293Q/R71H); assay: Cellular Functional Assay I: ISRE-SEAP reporter in HEK-293T-Dual Null cells transfected with hSTING-HAQ; conditions: HEK-293T-Dual Null, hSTING-HAQ
hSTING-HAQ, sequence (Q86WV6 whole entry R71H/G230A/H232R/R293Q): as the sequence (Q86WV6 whole entry G230A/H232R/R293Q) above, with R71H counted along it

[5] = biological target: hSTING-wt (Homo sapiens, UniProt Q86WV6); assay: Cellular Functional Assay I: ISRE-SEAP reporter in HEK-293T-Dual Null cells transfected with hSTING-wt; conditions: HEK-293T-Dual Null, hSTING-wt
hSTING-wt, sequence (Q86WV6 whole entry H232R): as the sequence (Q86WV6 whole entry G230A/H232R/R293Q) above, with A230G, Q293R counted along it

[6] = biological target: T3, hSTING-Q (Homo sapiens, UniProt Q86WV6, R293Q); assay: Cellular Functional Assay I: ISRE-SEAP reporter, hSTING-Q allele
T3 construct: expressed in transfected cells
T3 sequence (Q86WV6 whole entry R293Q): as the sequence (Q86WV6 whole entry G230A/H232R/R293Q) above, with A230G, R232H counted along it

[7] = SEAP reporter, HEK-293T-Dual Null, mSTING-wt, read-out: EC50 mSTING-wt

| Structure (SMILES) | pEC50 [1, 7] | pEC50 [2] | pEC50 [3] | pEC50 [4] | pEC50 [5] | pEC50 [6] | pEC50 [1] |
| --- | --- | --- | --- | --- | --- | --- | --- |
| CCn1nc(C)cc1C(=O)Nc1nc2cc(C(N)=O)cnc2n1C/C=C/CNC(=O)OC(C)(C)C [Compound D, tert-butyl N-[(E)-4-[6-carbamoyl-2-[(2-ethyl-5-methyl-pyrazole-3-carbonyl)amino]imidazo[4,5-b]pyridin-3-yl]but-2-enyl]carbamate] | < 6.30 | < 6.30 | < 6.30 | < 6.30 | < 6.30 | < 6.30 | – |
| CCn1nc(C)cc1C(=O)Nc1nc2cc(C(N)=O)cnc2n1CCCCNC(=O)OC(C)(C)C [Compound E, tert-butyl N-[4-[6-carbamoyl-2-[(2-ethyl-5-methyl-pyrazole-3-carbonyl)amino]imidazo[4,5-b]pyridin-3-yl]butyl]carbamate] | < 6.30 | < 6.30 | < 6.30 | < 6.30 | < 6.30 | < 6.30 | – |
| CCn1nc(C)cc1C(=O)Nc1nc2cc(C(N)=O)cnc2n1C/C=C/CNC(=O)OCc1ccccc1 [Compound F, benzyl N-[(E)-4-[6-carbamoyl-2-[(2-ethyl-5-methyl-pyrazole-3-carbonyl)amino]imidazo[4,5-b]pyridin-3-yl]but-2-enyl]carbamate] | < 6.30 | < 6.30 | < 6.30 | < 6.30 | < 6.30 | < 6.30 | – |
| CCn1nc(C)cc1C(=O)Nc1nc2cc(C(N)=O)cnc2n1CCCCNC(=O)OCc1ccccc1 [Compound G, benzyl N-[4-[6-carbamoyl-2-[(2-ethyl-5-methyl-pyrazole-3-carbonyl)amino]imidazo[4,5-b]pyridin-3-yl]butyl]carbamate] | < 6.30 | < 6.30 | < 6.30 | < 6.30 | < 6.30 | < 6.30 | – |
| CCn1nc(C)cc1C(=O)Nc1nc2cc(C(N)=O)sc2n1C/C=C/CNC(=O)OC(C)(C)C [Compound H, tert-butyl N-[(E)-4-[5-carbamoyl-2-[(2-ethyl-5-methyl-pyrazole-3-carbonyl)amino]thieno[2,3-d]imidazol-3-yl]but-2-enyl]carbamate] | < 6.30 | < 6.30 | < 6.30 | < 6.30 | < 6.30 | < 6.30 | – |
| CCn1nc(C)cc1C(=O)Nc1nc2cc(C(N)=O)sc2n1C/C=C/Cn1c(NC(=O)c2cc(C)nn2CC)nc2cc(C(N)=O)cc(OCCCNC)c21 [Compound Q, 3-[(E)-4-[5-carbamoyl-2-[(2-ethyl-5-methyl-pyrazole-3-carbonyl)amino]-7-[3-(methylamino)propoxy]benzimidazol-1-yl]but-2-enyl]-2-[(2-ethyl-5-methyl-pyrazole-3-carbonyl)amino]thieno[2,3-d]imidazole-5-carboxamide] | – | – | 6.30 to 9.00 | – | 6.30 to 9.00 | – | – |
| CCn1nc(C)cc1C(=O)Nc1nc2cc(C(N)=O)cnc2n1C/C=C/Cn1c(NC(=O)c2cc(C)nn2CC)nc2cc(C(N)=O)cc(OCCCO)c21 [Compound R] | – | 6.30 to 9.00 | 6.30 to 9.00 | 6.30 to 9.00 | 6.30 to 9.00 | 6.30 to 9.00 | 6.30 to 9.00 |
| CCn1nc(C)cc1C(=O)Nc1nc2cc(C(N)=O)cnc2n1C/C=C/Cn1c(NC(=O)c2cc(C)nn2CC)nc2cc(C(N)=O)cc(OCCCNC)c21 [Compound S, 3-[(E)-4-[5-carbamoyl-2-[(2-ethyl-5-methyl-pyrazole-3-carbonyl)amino]-7-[3-(methylamino)propoxy]benzimidazol-1-yl]but-2-enyl]-2-[(2-ethyl-5-methyl-pyrazole-3-carbonyl)amino]imidazo[4,5-b]pyridine-6-carboxamide] | 6.30 to 9.00 | 6.30 to 9.00 | 6.30 to 9.00 | 6.30 to 9.00 | 6.30 to 9.00 | 6.30 to 9.00 | – |
| CCn1nc(C)cc1C(=O)Nc1nc2cc(C(N)=O)cnc2n1C/C=C/Cn1c(NC(=O)c2cc(C)nn2CC)nc2cc(C(N)=O)cc(OCCCNCCOC(F)F)c21 [Compound U, 3-[(E)-4-[5-carbamoyl-7-[3-[2-(difluoromethoxy)ethylamino]propoxy]-2-[(2-ethyl-5-methyl-pyrazole-3-carbonyl)amino]benzimidazol-1-yl]but-2-enyl]-2-[(2-ethyl-5-methyl-pyrazole-3-carbonyl)amino]imidazo[4,5-b]pyridine-6-carboxamide] | 6.30 to 9.00 | 6.30 to 9.00 | 6.30 to 9.00 | 6.30 to 9.00 | 6.30 to 9.00 | 6.30 to 9.00 | – |
| CCn1nc(C)cc1C(=O)Nc1nc2cc(C(N)=O)cnc2n1C/C=C/Cn1c(NC(=O)c2cc(C)nn2CC)nc2cc(C(N)=O)cc(OCCCN(C)CCOC)c21 [Compound V, 3-[(E)-4-[5-carbamoyl-2-[(2-ethyl-5-methyl-pyrazole-3-carbonyl)amino]-7-[3-[2-methoxyethyl(methyl)amino]propoxy]benzimidazol-1-yl]but-2-enyl]-2-[(2-ethyl-5-methyl-pyrazole-3-carbonyl)amino]imidazo[4,5-b]pyridine-6-carboxamide] | 6.30 to 9.00 | 6.30 to 9.00 | 6.30 to 9.00 | 6.30 to 9.00 | 6.30 to 9.00 | 6.30 to 9.00 | – |

The next lines start with results.

| pEC50 [1, 7] | pEC50 [2] | pEC50 [3] | pEC50 [4] | pEC50 [5] | pEC50 [6] | Structure (SMILES) | pEC50 [1] |
| --- | --- | --- | --- | --- | --- | --- | --- |
| < 6.30 | 6.30 to 9.00 | 6.30 to 9.00 | < 6.30 | 6.30 to 9.00 | 6.30 to 9.00 | CCn1nc(C)cc1C(=O)Nc1nc2cc(C(N)=O)cc(C)c2n1C/C=C/Cn1c(NC(=O)c2cnc(C)s2)nc2cc(C(N)=O)cnc21 [Compound C, N-[6-carbamoyl-3-[(E)-4-[5-carbamoyl-2-[(2-ethyl-5-methyl-pyrazole-3-carbonyl)amino]-7-methyl-benzimidazol-1-yl]but-2-enyl]imidazo[4,5-b]pyridin-2-yl]-2-methyl-thiazole-5-carboxamide Hydrochloride] | – |
| 6.30 to 9.00 | < 6.30 | 6.30 to 9.00 | < 6.30 | 6.30 to 9.00 | 6.30 to 9.00 | CCn1nc(C)cc1C(=O)Nc1nc2cc(C(N)=O)cnc2n1C/C=C/Cn1c(NC(=O)c2cc(C)nn2CC)nc2cc(C(N)=O)cnc21 [Compound L, 3-[(E)-4-[6-carbamoyl-2-[(2-ethyl-5-methyl-pyrazole-3-carbonyl)amino]imidazo[4,5-b]pyridin-3-yl]but-2-enyl]-2-[(2-ethyl-5-methyl-pyrazole-3-carbonyl)amino]imidazo[4,5-b]pyridine-6-carboxamide] | – |
| 6.30 to 9.00 | < 6.30 | 6.30 to 9.00 | < 6.30 | 6.30 to 9.00 | 6.30 to 9.00 | CCn1nc(C)cc1C(=O)Nc1nc2cc(C(N)=O)ccc2n1C/C=C/Cn1c(NC(=O)c2cc(C)nn2CC)nc2cc(C(N)=O)sc21 [Compound M, 3-[(E)-4-[5-carbamoyl-2-[(2-ethyl-5-methyl-pyrazole-3-carbonyl)amino]benzimidazol-1-yl]but-2-enyl]-2-[(2-ethyl-5-methyl-pyrazole-3-carbonyl)amino]thieno[2,3-d]imidazole-5-carboxamide Tetrahydrochloride] | – |
| 6.30 to 9.00 | < 6.30 | > 9.00 | < 6.30 | > 9.00 | 6.30 to 9.00 | CCn1nc(C)cc1C(=O)Nc1nc2cc(C(N)=O)sc2n1C/C=C/Cn1c(NC(=O)c2cc(C)nn2CC)nc2cc(C(N)=O)cc(OCCOC(F)F)c21 [Compound N, 3-[(E)-4-[5-carbamoyl-7-[2-(difluoromethoxy)ethoxy]-2-[(2-ethyl-5-methyl-pyrazole-3-carbonyl)amino]benzimidazol-1-yl]but-2-enyl]-2-[(2-ethyl-5-methyl-pyrazole-3-carbonyl)amino]thieno[2,3-d]imidazole-5-carboxamide Tetrahydrochloride] | – |
| – | – | 6.30 to 9.00 | – | 6.30 to 9.00 | – | CCn1nc(C)cc1C(=O)Nc1nc2cc(C(N)=O)sc2n1C/C=C/Cn1c(NC(=O)c2cc(C)nn2CC)nc2cc(C(N)=O)cc(OCCCN(C)C)c21 [Compound O, 3-[(E)-4-[5-carbamoyl-7-[3-(dimethylamino)propoxy]-2-[(2-ethyl-5-methyl-pyrazole-3-carbonyl)amino]benzimidazol-1-yl]but-2-enyl]-2-[(2-ethyl-5-methyl-pyrazole-3-carbonyl)amino]thieno[2,3-d]imidazole-5-carboxamide] | – |
| 6.30 to 9.00 | 6.30 to 9.00 | 6.30 to 9.00 | 6.30 to 9.00 | 6.30 to 9.00 | 6.30 to 9.00 | CCn1nc(C)cc1C(=O)Nc1nc2cc(C(N)=O)cnc2n1C/C=C/Cn1c(NC(=O)c2cc(C)nn2CC)nc2cc(C(N)=O)cc(OCCCN(C)C)c21 [Compound P, 3-[(E)-4-[5-carbamoyl-7-[3-(dimethylamino)propoxy]-2-[(2-ethyl-5-methyl-pyrazole-3-carbonyl)amino]benzimidazol-1-yl]but-2-enyl]-2-[(2-ethyl-5-methyl-pyrazole-3-carbonyl)amino]imidazo[4,5-b]pyridine-6-carboxamide] | – |
